Laboratory results published in article PMC4977651, “Molecular features of biguanides required for targeting of mitochondrial respiratory complex I and activation of AMP-kinase” (BMC Biology, 2016).
Where “and” joins values, the source holds several entries; their conditions need not be identical. Equal entries are not always repeated.

How the values were obtained:
HepG2 cells = assay: Rotenone-sensitive oxygen consumption rate in intact HepG2 cells; format: cell-based, human; conditions: for rotenone sensitive OCR after 6 hours of biguanide exposure, % control, average / rotenone sensitive OCR after 6 hours of biguanide exposure, average: HEPG2 cells, biguanide at IC50/10; for rotenone sensitive OCR after 6 hours of biguanide exposure, average: OCR normalized to OCR immediately prior to biguanide addition; for inhibition of rotenone-sensitive respiration (in words): intact HepG2 cells, biguanide at IC50/10, monitored for 6 h
Procedure: (§1) 143B (CRL-8303 from ATCC), HepG2 (85011430 from The Health Protection Agency), and MDBK (CCL-22 from ATCC) cells were grown on Dulbecco’s modified Eagle’s medium (DMEM) supplemented with 10 % fetal bovine serum (FBS, Thermo Fisher Scientific) at 37 °C in 5 % CO2. All cells were confirmed as negative for mycoplasma.
(§2) Oxygen consumption rates (OCRs) were measured using a Seahorse XF96 extracellular flux analyzer at 37 °C. For intact cell measurements, 1.4 × 10^4 143B, HepG2, or MDBK cells were plated (per well) in DMEM containing 10 % FBS into Seahorse Bioscience Inc. XF96 plates and incubated for ~12 h at 37 °C in 5 % CO2. Then, the medium was exchanged for assay buffer containing DMEM, 4.5 g L^−1 glucose, 1 mM pyruvate, 32 mM NaCl, 2 mM GlutaMAX, 15 mg L^−1 phenol red, and 20 mM HEPES (pH 7.4 at 37 °C) and the cells placed in a CO2-free incubator at 37 °C for 30 min. Basal oxygen consumption rates were established before the addition of biguanides at one-tenth of their IC50 (IC50/10), and followed for ~ 6 h before the addition of rotenone (2 μM).
(§3) Rotenone-sensitive OCRs were calculated by subtracting the rotenone-insensitive rates (determined at the end of the experiment). OCRs were normalized by dividing by the OCR recorded immediately prior to the addition of biguanide. For rate of uptake calculations, the OCRs at time points after biguanide addition were divided by the OCRs at the same time points in control experiments. Data from wells with failed port injections were excluded from the analyses. The respiratory control ratio (RCR) values (state III versus state IV respiration) were ~11 and ~6 for permeabilized MDBK and 143B cells, respectively.

[1] = test system: acetyl-coA carboxylase (phospho-Ser79); assay: AMPK activation, western blot of phospho-acetyl-coA carboxylase in MDBK cells; format: cell-based, Bos taurus; conditions: for ACC, average normalised to control: Averages of experiments 1-3, 18 hours; for p-ACC: band intensity
Procedure: MDBK cells were seeded at 1 × 10^6 cells per 6 cm dish in DMEM containing 10 % FBS. […] After 18 h cells were harvested by a rapid lysis procedure: cells were rinsed with PBS, then lysed using ice-cold buffer containing 50 mM HEPES, 1 mM EDTA, 10 % glycerol, 50 mM NaF, 5 mM sodium pyrophosphate, 1 % Triton-X100, 1 mM dithiothreitol (DTT), and a protease inhibitor cocktail (Roche). The cell lysate was centrifuged at 14,000 × g for 20 min at 4 °C and the protein concentration of the supernatant determined by bicinchoninic acid assay. The lysate was analyzed using Novex 3–12 % bis-Tris gels run in 3-(N-morpholino)propanesulfonic acid (MOPS) buffer (20 μg of protein per lane) followed by transfer to low fluorescence polyvinylidene fluoride membranes by wet transfer. Primary rabbit antibodies for AMPK-β (57C12), AMPK-α (phospho-Thr172) (40H9), and acetyl-coA carboxylase (phospho-Ser79) (Cell Signaling Technology) were incubated overnight with the membrane (1:1000 dilution) in Odyssey blocking buffer at 4 °C. A fluorescent secondary antibody was used (IRDYE800CW from LI-COR Biosciences, 1:20,000 dilution) with a LI-COR Odyssey imaging system.

mouse heart mitochondria = assay: ADP-stimulated rotenone-sensitive OCR in isolated mouse heart mitochondria; format: biochemical; set-up: rotenone sensitive OCR after ADP stimulation, individual replicates / rotenone sensitive OCR after ADP stimulation, average / rotenone sensitive OCR after 15 mins, average: unit not given here; conditions: for rotenone sensitive OCR after ADP stimulation, % of control, average / rotenone sensitive OCR after ADP stimulation, average: average of replicates; for rotenone sensitive OCR after ADP stimulation, % of control, individual replicates: replicate 1-11; for rotenone sensitive OCR after ADP stimulation, individual replicates: replicate 1-12
Procedure: (§4) Complex I and mitochondrial membranes were prepared from Bos taurus (bovine) heart. Intact mitochondria were isolated from rat liver and mouse heart and liver. Membranes were prepared from mouse heart mitochondria by 5 s bursts of sonication at 4 °C and collected by centrifugation (75,000 × g, 1 h).
Isolated mitochondria were monitored using a Seahorse XF96 extracellular flux analyzer at 32 °C. Mouse heart mitochondria, and mouse and rat liver mitochondria were plated into XF96 plates at 4 and 16–20 μg per well, respectively, in 220 mM mannitol, 70 mM sucrose, 10 mM KH2PO4, 5 mM MgCl2, 1 mM EGTA, 0.2 % fatty acid-free BSA, and 2 mM HEPES (pH 7.4 at 37 °C) with 10 mM glutamate and 10 mM malate and adhered by centrifugation (2000 × g, 20 min, 4 °C). The medium was supplemented with a further 5 mM glutamate and 5 mM malate and the mitochondria incubated for 15 min. Then two baseline readings were taken before the biguanides were added at IC50/5. […] Rotenone (2 μM) was added at the end of the experiment. Data from wells with failed port injections were excluded from the analyses. The RCR values (state III versus state IV respiration) were 3.4, 4.8, and 4.6 for mouse heart, rat liver, and mouse liver, respectively.

mouse liver mitochondria = assay: ADP-stimulated rotenone-sensitive OCR in isolated mouse liver mitochondria; format: biochemical; set-up: rotenone sensitive OCR after ADP stimulation, individual replicates / rotenone sensitive OCR after ADP stimulation, average: unit not given here; conditions: for rotenone sensitive OCR after ADP stimulation, % of control, average / rotenone sensitive OCR after ADP stimulation, average: average of replicates; for rotenone sensitive OCR after ADP stimulation, % of control, individual replicates / rotenone sensitive OCR after ADP stimulation, individual replicates: replicate 1-5
Procedure: as §4
Isolated mitochondria were monitored using a Seahorse XF96 extracellular flux analyzer at 32 °C. Mouse heart mitochondria, and mouse and rat liver mitochondria were plated into XF96 plates at 4 and 16–20 μg per well, respectively, in 220 mM mannitol, 70 mM sucrose, 10 mM KH2PO4, 5 mM MgCl2, 1 mM EGTA, 0.2 % fatty acid-free BSA, and 2 mM HEPES (pH 7.4 at 37 °C) with 10 mM glutamate and 10 mM malate and adhered by centrifugation (2000 × g, 20 min, 4 °C). The medium was supplemented with a further 5 mM glutamate and 5 mM malate and the mitochondria incubated for 15 min. Then two baseline readings were taken before the biguanides were added at IC50/5. Biguanides were allowed to accumulate for 15–20 min before respiration was […] by the addition of 4 mM ADP. Rotenone (2 μM) was added at the end of the experiment. Data from wells with failed port injections were excluded from the analyses. The RCR values (state III versus state IV respiration) were 3.4, 4.8, and 4.6 for mouse heart, rat liver, and mouse liver, respectively.

[2] = Octanol/PBS partition coefficient, shake-flask method; format: physicochemical; conditions: 32 °C, pH 7.4, n = 3
Procedure: Octanol/PBS partition coefficients were measured by the shake-flask method at 32 °C, pH 7.4.

143B cells = assay: Rotenone-sensitive oxygen consumption rate in intact 143B cells; format: cell-based, human; conditions: for rotenone sensitive OCR after 6 hours of biguanide exposure, % control, average / rotenone sensitive OCR after 6 hours of biguanide exposure, average: biguanide at IC50/10; for rotenone sensitive OCR after 6 hours of biguanide exposure, average: OCR normalized to OCR immediately prior to biguanide addition; for inhibition of rotenone-sensitive respiration (in words): intact 143B cells, biguanide at IC50/10, monitored for 6 h
Procedure: as §1, §2, §3

| SMILES | rotenone sensitive OCR after 6 hours of biguanide exposure, % control, average (HepG2 cells) [% control] | rotenone sensitive OCR after 6 hours of biguanide exposure, average (HepG2 cells) | inhibition of rotenone-sensitive respiration (in words) (HepG2 cells) | ACC, average normalised to control [1] | p-ACC / AMPK beta ([1]; Experiment 1, 18 hours) | p-ACC / AMPK beta normalised to control ([1]; Experiment 1, 18 hours) | p-ACC ([1]; Experiment 1, 18 hours) | p-ACC / AMPK beta ([1]; Experiment 2, 18 hours) | p-ACC / AMPK beta normalised to control ([1]; Experiment 2, 18 hours) | p-ACC ([1]; Experiment 2, 18 hours) | p-ACC / AMPK beta ([1]; Experiment 3, 18 hours) | p-ACC / AMPK beta normalised to control ([1]; Experiment 3, 18 hours) | p-ACC ([1]; Experiment 3, 18 hours) | rotenone sensitive OCR after ADP stimulation, % of control, average (mouse heart mitochondria) | rotenone sensitive OCR after ADP stimulation, average (mouse heart mitochondria) | rotenone sensitive OCR after ADP stimulation, % of control, individual replicates (mouse heart mitochondria) | rotenone sensitive OCR after ADP stimulation, individual replicates (mouse heart mitochondria) | rotenone sensitive OCR after ADP stimulation, % of control, average (mouse liver mitochondria) | rotenone sensitive OCR after ADP stimulation, average (mouse liver mitochondria) | rotenone sensitive OCR after ADP stimulation, % of control, individual replicates (mouse liver mitochondria) | other results |
| --- | --- | --- | --- | --- | --- | --- | --- | --- | --- | --- | --- | --- | --- | --- | --- | --- | --- | --- | --- | --- | --- |
| CC(C)N=C(N)N=C(N)N [compound 4, 1-(diaminomethylidene)-2-(propan-2-yl)guanidine] | 0.42 | 0.43 | inhibit respiration | 13.65 | 2.64 | 13.60 | 1170 | 2.65 | 16.42 | 693 | 3.25 | 10.92 | 641 | 23.15 % of control | 56.07 | 28.98 % of control and 23.60 % of control and 23.95 % of control and 23.54 % of control and 25.71 % of control and 23.25 % of control and 16.50 % of control and 19.68 % of control | 70.20 and 57.15 and 58.01 and 57.01 and 62.27 and 56.30 and 39.95 and 47.67 | 19.19 % of control | 6.66 | 21.16 % of control and 18.53 % of control and 17.88 % of control | estimated rate of uptake into mitochondria (HepG2 cells; HepG2 cells, 3 mM in the extracellular medium): > 1.5 mM/min; rotenone sensitive OCR after ADP stimulation, individual replicates (mouse liver mitochondria): 7.34 and 6.43 and 6.20; P (partition coefficient) [2]: 0.061; logP [2]: -1.21; estimated rate of uptake into mitochondria (143B cells; 143B cells, 3 mM in the extracellular medium): > 1.5 mM/min; rotenone sensitive OCR after 6 hours of biguanide exposure, % control, average (143B cells; 143B cells): 0.91 % control; rotenone sensitive OCR after 6 hours of biguanide exposure, average (143B cells; 143B cells): 1.07; inhibition of rotenone-sensitive respiration (in words) (143B cells): inhibit respiration |
| CC(C)N=C(N)N=C(N)NC(C)C [compound 5, N-(propan-2-yl)-1-3-(propan-2-yl)carbamimidamidomethanimidamide] | 88.37 | 91.14 | do not | 1.36 | 0.27 | 1.41 | 131 | 0.23 | 1.44 | 70.3 | 0.36 | 1.22 | 64.6 | 111.59 % of control | 270.26 | 121.74 % of control and 137.11 % of control and 79.19 % of control and 109.33 % of control and 124.83 % of control and 108.07 % of control and 108.05 % of control and 104.41 % of control | 294.85 and 332.07 and 191.79 and 264.79 and 302.34 and 261.73 and 261.69 and 252.86 | 82.72 % of control | 28.70 | 96.11 % of control and 71.97 % of control and 77.63 % of control and 85.15 % of control | rotenone sensitive OCR after ADP stimulation, individual replicates (mouse liver mitochondria): 33.35 and 24.97 and 26.94 and 29.54; P (partition coefficient) [2]: 3.371; logP [2]: 0.528; rotenone sensitive OCR after 6 hours of biguanide exposure, % control, average (143B cells; 143B cells): 102.76 % control; rotenone sensitive OCR after 6 hours of biguanide exposure, average (143B cells; 143B cells): 120.45; inhibition of rotenone-sensitive respiration (in words) (143B cells): do not |
